Data taken from PMC4326127, “Collagen Inhibitory Peptide R1R2 Mediates Vascular Remodeling by Decreasing Inflammation and Smooth Muscle Cell Activation” (PLoS ONE, 2015).
“Also recorded” adds a separate entry of the source.

Tests used:
[1] = system: ICAM-1; experiment: Western blot of ICAM-1 in TNF-α-treated HUVECs; type: cell-based, human; settings: in words
Experimental: Human umbilical vein endothelial cells (HUVECs) and A7r5 SMCs were provided by Resource Center (SB3, NSC 100-2325-B-080-001), National Research Program for Biopharmaceuticals (Hsinchu, Taiwan). HUVECs were maintained in M199 (Life Technologies, Carlsbad, CA) with 25U/ml heparin (Sigma-Aldrich, St. Louis, MO), 10% fetal bovine serum (FBS) and endothelial cell growth supplement (ECGS; Millipore, Billerica, MA). A7r5 SMCs were grown in Dulbecco’s Modified Eagle’s Medium (DMEM) containing high glucose, supplemented with 10% fetal bovine serum. Human U937 cells were grown in RPMI1640 with 10% FBS.
Tissues or cells were homogenized with RIPA buffer supplemented with protease inhibitor cocktail (Sigma-Aldrich, St. Louis, MO). Cell lysates were spun at 12,000 rpm for 15 min at 4°C, then electrophoresed on 10% SDS-PAGE gel and transferred to nitrocellulose. […]
Fig 8 R1R2 decreases TNF-α-induced monocyte U937 cell adhesion to HUVECs and transendothelial migration and reduces ICAM-1 and VCAM-1 levels. […] Calcein-AM labeled U937 monocyte adhesion to TNF-α HUVECs was quantitated by fluorescence intensity. Microscopic images showing U937 monocytes adhering to HUVECs as assessed by in vitro adhesion assay. […]

[2] = system: CD45 (+) leukocytes; experiment: CD45 IHC, leukocyte infiltration in carotid intima-media; type: in vivo, FVB/NJ (FVB) mice
Experimental: Animals were anesthetized with isoflurane inhalation. The left common carotid artery was exposed, dissected free from the surrounding connective tissue and completely ligated with 6-0 silk suture just proximal to the carotid bifurcation. […] 4–10 mice were included in each experimental group.
Paraffin sections selected from the first mm of the carotid artery in each group were used for immunohistochemistry (IHC). […] Sections were then incubated with appropriate biotinylated secondary antibodies followed by avidin-biotin immunoperoxidase system (Vector Laboratories, Burlingame, CA). Liquid DAB Substrate Chromogen system (Dako, Carpinteria, CA) was used for detection.
Quantitative IHC analysis was performed on digital images captured with a 20x objective by using Image-Pro Plus software. Data from 3–6 mice for each group were averaged, and the average values ± SEM were shown. For FN, collagen type I, SM-MHC and SM α-actin, color digital images were transformed into gray scale, and the sum of the optical densities from the intima+media area in each section was determined. […] The percent of positive cells is reported as the proliferation index. […] The intima+media region was traced manually. The percent of positively stained area in intima+media to the total traced area was assessed.
For in vivo experiments, the data are shown as the mean ± SEM. For in vitro experiments, the data shown are the means ± SD of a representative experiment, at least 3 independent experiments were performed. One-way ANOVA with post-hoc testing were used for data analysis with GraphPad Prism software (GraphPad, San Diego, CA). If normality test failed, nonparametric Kruskal-Wallis test followed by Dunn's post-hoc test were used. P > 0.05 was not considered significant.

GLNGENQKEPEQGERGEAGPPLSGLSGNNQGRPSLPGLNGENQKEPEQGERGEAGPP [R1R2]
ICAM-1 expression on HUVECs [1]: significantly decreased; also recorded: transient and detected earlier than the effect on VCAM-1 expression
CD45 (+) area in intima-media ([2]; 7 days after ligation, percent of positively stained area, mean ± SEM, R1R2 n = 5, scrambled n = 6): 0.094 ± 0.035%
reduction of inflammatory cell infiltration into the vessel ([2]; carotid artery, periadventitial pluronic gel): ~78%
